Laboratory results from BindingDB's records for doi:10.1016/j.bmcl.2009.04.040 (The University of Texas Southwestern Medical Center At …, 2009).

These compounds were tested against Proto-oncogene Wnt-3 (Homo sapiens, UniProt P56703) (assay: Inhibition of Wnt3 expressed in mouse L-cells assessed as inhibition of Wnt/catanin signaling pathway by luciferase reporter gene assay).
Chain of Proto-oncogene Wnt-3 (P56703 whole entry): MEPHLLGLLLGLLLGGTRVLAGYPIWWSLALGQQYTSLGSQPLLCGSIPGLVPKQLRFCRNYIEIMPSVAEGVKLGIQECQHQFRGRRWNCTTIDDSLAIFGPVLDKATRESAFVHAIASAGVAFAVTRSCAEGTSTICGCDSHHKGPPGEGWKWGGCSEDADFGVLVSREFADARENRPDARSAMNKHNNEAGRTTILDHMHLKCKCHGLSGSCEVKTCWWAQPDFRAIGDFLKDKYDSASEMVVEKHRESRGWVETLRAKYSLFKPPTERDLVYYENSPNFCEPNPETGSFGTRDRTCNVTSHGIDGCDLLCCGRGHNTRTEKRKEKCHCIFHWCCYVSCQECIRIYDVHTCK

| SMILES | EC50 [µM] |
| --- | --- |
| O=C(Nc1ccc(C(F)(F)F)cc1)c1ccc(-n2c(O)c3c(c2O)[C@H]2C=C[C@@H]3C2)cc1 [4-((1R,2S,6R,7S)-3,5-Dioxo-4-aza-tricyclo[5.2.1.0*2,6*]dec-8-en-4-yl)-N-(4-trifluoromethyl-phenyl)-benzamide] | > 25 |
| O=C(NC1CCCc2cccnc21)c1ccc(-n2c(O)c3c(c2O)[C@H]2C=C[C@@H]3C2)cc1 (stereo partly drawn) [4-((1R,2S,6R,7S)-3,5-Dioxo-4-aza-tricyclo[5.2.1.0*2,6*]dec-8-en-4-yl)-N-(5,6,7,8-tetrahydro-quinolin-8-yl)-benzamide] | 10 |
| CN(C(=O)c1ccc(-n2c(O)c3c(c2O)[C@H]2C=C[C@@H]3C2)cc1)c1cccc2cccnc12 [4-((1R,2S,6R,7S)-3,5-Dioxo-4-aza-tricyclo[5.2.1.0*2,6*]dec-8-en-4-yl)-N-methyl-N-quinolin-8-yl-benzamide] | > 25 |
| O=C(NCc1ccccn1)c1ccc(-n2c(O)c3c(c2O)[C@H]2C=C[C@@H]3C2)cc1 [4-((1R,2S,6R,7S)-3,5-Dioxo-4-aza-tricyclo[5.2.1.0*2,6*]dec-8-en-4-yl)-N-pyridin-2-ylmethyl-benzamide] | > 25 |
| O=C(NCc1cccnc1)c1ccc(-n2c(O)c3c(c2O)[C@H]2C=C[C@@H]3C2)cc1 [4-((1R,2S,6R,7S)-3,5-Dioxo-4-aza-tricyclo[5.2.1.0*2,6*]dec-8-en-4-yl)-N-pyridin-3-ylmethyl-benzamide] | > 25 |
| O=C(NCc1ccncc1)c1ccc(-n2c(O)c3c(c2O)[C@H]2C=C[C@@H]3C2)cc1 [4-((1R,2S,6R,7S)-3,5-Dioxo-4-aza-tricyclo[5.2.1.0*2,6*]dec-8-en-4-yl)-N-pyridin-4-ylmethyl-benzamide] | 10 |
| O=C(Nc1cccc2cccnc12)N1CCC(N2C(=O)[C@@H]3[C@H](C2=O)[C@@H]2C=C[C@H]3C2)CC1 [4-((1R,2S,6R,7S)-3,5-Dioxo-4-aza-tricyclo[5.2.1.0*2,6*]dec-8-en-4-yl)-piperidine-1-carboxylic acid quinolin-8-ylamide] | 10 |
| O=C1[C@@H]2[C@H](C(=O)N1C[C@H]1CC[C@H](C(=O)Nc3cccc4cccnc34)CC1)[C@@H]1C=C[C@H]2C1 [4-((1R,2S,6R,7S)-3,5-Dioxo-4-aza-tricyclo[5.2.1.0*2,6*]dec-8-en-4-ylmethyl)-cyclohexanecarboxylic acid quinolin-8-ylamide] | > 25 |
| Cc1ccnc2c(NC(=O)[C@H]3CC[C@H](CN4C(=O)[C@@H]5[C@H](C4=O)[C@@H]4C=C[C@H]5C4)CC3)cccc12 [4-((1R,2S,6R,7S)-3,5-Dioxo-4-aza-tricyclo[5.2.1.0*2,6*]dec-8-en-4-ylmethyl)-cyclohexanecarboxylic acid(4-methyl-quinolin-8-yl)-amide] | > 25 |
| Cc1ccc2cccnc2c1NC(=O)[C@H]1CC[C@H](CN2C(=O)[C@@H]3[C@H](C2=O)[C@@H]2C=C[C@H]3C2)CC1 [4-((1R,2S,6R,7S)-3,5-Dioxo-4-aza-tricyclo[5.2.1.0*2,6*]dec-8-en-4-ylmethyl)-cyclohexanecarboxylic acid(7-methyl-quinolin-8-yl)-amide] | 10 |
| O=C(Nc1cccc(F)c1F)c1ccc(-n2c(O)c3c(c2O)[C@H]2C=C[C@@H]3C2)cc1 [N-(2,3-Difluoro-phenyl)-4-((1R,2S,6R,7S)-dioxo-4-aza-tricyclo[5.2.1.0*2,6*]dec-8-en-4-yl)-benzamide] | > 25 |
| O=C(Nc1ccc(Br)cc1Br)c1ccc(-n2c(O)c3c(c2O)[C@H]2C=C[C@@H]3C2)cc1 [N-(2,4-Dibromo-phenyl)-4-((1R,2S,6R,7S)-dioxo-4-aza-tricyclo[5.2.1.0*2,6*]dec-8-en-4-yl)-benzamide] | > 25 |
| O=C(Nc1ccc(Cl)cc1Cl)c1ccc(-n2c(O)c3c(c2O)[C@H]2C=C[C@@H]3C2)cc1 [N-(2,4-Dichloro-phenyl)-4-((1R,2S,6R,7S)-dioxo-4-aza-tricyclo[5.2.1.0*2,6*]dec-8-en-4-yl)-benzamide] | 10 |
| O=C(Nc1cc(F)ccc1F)c1ccc(-n2c(O)c3c(c2O)[C@H]2C=C[C@@H]3C2)cc1 [N-(2,5-Difluoro-phenyl)-4-((1R,2S,6R,7S)-dioxo-4-aza-tricyclo[5.2.1.0*2,6*]dec-8-en-4-yl)-benzamide] | > 25 |
| O=C(Nc1c(F)cccc1F)c1ccc(-n2c(O)c3c(c2O)[C@H]2C=C[C@@H]3C2)cc1 [N-(2,6-Difluoro-phenyl)-4-((1R,2S,6R,7S)-dioxo-4-aza-tricyclo[5.2.1.0*2,6*]dec-8-en-4-yl)-benzamide] | > 25 |
| O=C(Nc1ccccc1Br)c1ccc(-n2c(O)c3c(c2O)[C@H]2C=C[C@@H]3C2)cc1 [N-(2-Bromo-phenyl)-4-((1R,2S,6R,7S)-3,5-dioxo-4-aza-tricyclo[5.2.1.0*2,6*]dec-8-en-4-yl)-benzamide] | > 25 |
| O=C(Nc1ccccc1Cl)c1ccc(-n2c(O)c3c(c2O)[C@H]2C=C[C@@H]3C2)cc1 [N-(2-Chloro-phenyl)-4-((1R,2S,6R,7S)-3,5-dioxo-4-aza-tricyclo[5.2.1.0*2,6*]dec-8-en-4-yl)-benzamide] | > 25 |
| O=C(Nc1ccc(Br)c(Br)c1)c1ccc(-n2c(O)c3c(c2O)[C@H]2C=C[C@@H]3C2)cc1 [N-(3,4-Dibromo-phenyl)-4-((1R,2S,6R,7S)-dioxo-4-aza-tricyclo[5.2.1.0*2,6*]dec-8-en-4-yl)-benzamide] | 10 |
| O=C(Nc1cc(F)cc(F)c1)c1ccc(-n2c(O)c3c(c2O)[C@H]2C=C[C@@H]3C2)cc1 [N-(3,5-Difluoro-phenyl)-4-((1R,2S,6R,7S)-dioxo-4-aza-tricyclo[5.2.1.0*2,6*]dec-8-en-4-yl)-benzamide] | > 25 |
| O=C(Nc1cccc(Cl)c1)c1ccc(-n2c(O)c3c(c2O)[C@H]2C=C[C@@H]3C2)cc1 [N-(3-Chloro-phenyl)-4-((1R,2S,6R,7S)-3,5-dioxo-4-aza-tricyclo[5.2.1.0*2,6*]dec-8-en-4-yl)-benzamide] | > 25 |
| O=C(NCc1ccccc1)c1ccc(-n2c(O)c3c(c2O)[C@H]2C=C[C@@H]3C2)cc1 [N-Benzyl-4-((1R,2S,6R,7S)-3,5-dioxo-4-aza-tricyclo[5.2.1.0*2,6*]dec-8-en-4-yl)-benzamide] | 20 |
| O=C(NC1CCCCC1)c1ccc(-n2c(O)c3c(c2O)[C@H]2C=C[C@@H]3C2)cc1 [N-Cyclohexyl-4-((1R,2S,6R,7S)-3,5-dioxo-4-aza-tricyclo[5.2.1.0*2,6*]dec-8-en-4-yl)-benzamide] | > 25 |
| O=C(N[C@H]1CCCC[C@@H]1O)c1ccc(-n2c(O)c3c(c2O)[C@H]2C=C[C@@H]3C2)cc1 [trans-4-((1R,2S,6R,7S)-3,5-Dioxo-4-aza-tricyclo[5.2.1.0*2,6*]dec-8-en-4-yl)-N-((2-hydroxy-cyclohexyl)-benzamide] | > 25 |

Compounds with a lower EC50, results first:

| EC50 [µM] | SMILES |
| --- | --- |
| 0.8 | Cc1ccc2cccnc2c1NC(=O)c1ccc(-n2c(O)c3c(c2O)[C@H]2C=C[C@@H]3C2)cc1 [4-((1R,2S,6R,7S)-3,5-Dioxo-4-aza-tricyclo[5.2.1.0*2,6*]dec-8-en-4-yl)-N-(7-methyl-quinolin-8-yl)-benzamide] |
| 0.4 | O=C1[C@@H]2[C@H](C(=O)N1[C@H]1CC[C@H](C(=O)Nc3cccc4cccnc34)CC1)[C@@H]1C=C[C@H]2C1 [4-((1R,2S,6R,7S)-3,5-Dioxo-4-aza-tricyclo[5.2.1.0*2,6*]dec-8-en-4-yl)-cyclohexanecarboxylic acid quinolin-8-ylamide] |
| 1 | Cc1ccnc2c(NC(=O)[C@H]3CC[C@H](N4C(=O)[C@@H]5[C@H](C4=O)[C@@H]4C=C[C@H]5C4)CC3)cccc12 [4-((1R,2S,6R,7S)-3,5-Dioxo-4-aza-tricyclo[5.2.1.0*2,6*]dec-8-en-4-yl)-cyclohexanecarboxylic acid(4-methyl-quinolin-8-yl)-amide] |
| 1 | Cc1ccc2cccnc2c1NC(=O)[C@H]1CC[C@H](N2C(=O)[C@@H]3[C@H](C2=O)[C@@H]2C=C[C@H]3C2)CC1 [4-((1R,2S,6R,7S)-3,5-Dioxo-4-aza-tricyclo[5.2.1.0*2,6*]dec-8-en-4-yl)-cyclohexanecarboxylic acid(7-methyl-quinolin-8-yl)-amide] |
| 9 | O=C(Nc1ccc(F)cc1F)c1ccc(-n2c(O)c3c(c2O)[C@H]2C=C[C@@H]3C2)cc1 [N-(2,4-Difluoro-phenyl)-4-((1R,2S,6R,7S)-dioxo-4-aza-tricyclo[5.2.1.0*2,6*]dec-8-en-4-yl)-benzamide] |
| 5 | O=C(Nc1ccc(Cl)c(Cl)c1)c1ccc(-n2c(O)c3c(c2O)[C@H]2C=C[C@@H]3C2)cc1 [N-(3,4-Dichloro-phenyl)-4-((1R,2S,6R,7S)-dioxo-4-aza-tricyclo[5.2.1.0*2,6*]dec-8-en-4-yl)-benzamide] |
| 3 | O=C(Nc1ccc(F)c(F)c1)c1ccc(-n2c(O)c3c(c2O)[C@H]2C=C[C@@H]3C2)cc1 [N-(3,4-Difluoro-phenyl)-4-((1R,2S,6R,7S)-dioxo-4-aza-tricyclo[5.2.1.0*2,6*]dec-8-en-4-yl)-benzamide] |
| 9 | O=C(Nc1cccc(Br)c1)c1ccc(-n2c(O)c3c(c2O)[C@H]2C=C[C@@H]3C2)cc1 [N-(3-Bromo-phenyl)-4-((1R,2S,6R,7S)-3,5-dioxo-4-aza-tricyclo[5.2.1.0*2,6*]dec-8-en-4-yl)-benzamide] |
| 1 | O=C(Nc1ccc(Br)cc1)c1ccc(-n2c(O)c3c(c2O)[C@H]2C=C[C@@H]3C2)cc1 [N-(4-Bromo-phenyl)-4-((1R,2S,6R,7S)-3,5-dioxo-4-aza-tricyclo[5.2.1.0*2,6*]dec-8-en-4-yl)-benzamide] |
| 3 | O=C(Nc1ccc(Cl)cc1)c1ccc(-n2c(O)c3c(c2O)[C@H]2C=C[C@@H]3C2)cc1 [N-(4-Chloro-phenyl)-4-((1R,2S,6R,7S)-3,5-dioxo-4-aza-tricyclo[5.2.1.0*2,6*]dec-8-en-4-yl)-benzamide] |
| 2 | CO[C@@H]1CCCC[C@H]1NC(=O)c1ccc(-n2c(O)c3c(c2O)[C@H]2C=C[C@@H]3C2)cc1 [trans-4-((1R,2S,6R,7S)-3,5-Dioxo-4-aza-tricyclo[5.2.1.0*2,6*]dec-8-en-4-yl)-N-(2-methoxy-cyclohexyl)-benzamide] |
